Results on nine compounds are retold here after US10105357B2, “Indication of antibiotic drugs for preparation of cancer inhibition pharmaceutical composition” (LAUNX BIOMEDICAL CO., LTD., priority 2014, dated 2018).

Counter-ions that a name gives are not always drawn. Like-named read-outs stand apart in the source and are kept apart here.

A word on the viability: it is a read-out of living cells in per cent, often relative to untreated cells.

Common to all, as to assay type: cell-based, human
The subject of data set [1] is HepG2 (Hepatocellular Carcinoma). The experiment in a line: Cell viability analysis, hepatic cancer HepG2. The following applies: for viability at 10 µM: Homo sapiens.
Data set [2] deals with A375 (Amelanotic Melanoma). The experiment in a line: Cell viability analysis, skin cancer A375. The following applies: for viability at 10 µM: Homo sapiens.
In data set [3] the test system is PC3 (p53−) (Prostate Adenocarcinoma). The experiment in a line: Cell viability analysis, prostate cancer PC3. Conditions: for viability at 10 µM: Homo sapiens.
The subject of data set [4] is HeLa (Cervix Adenocarcinoma). The experiment in a line: Cell viability analysis, cervical cancer HeLa. Conditions: Homo sapiens, HeLa.
The subject of data set [5] is HL-60 (Acute Promyelocytic Leukemia). The experiment in a line: Cell viability analysis, leukemia HL-60. The following applies: for viability at 10 µM: Homo sapiens.
The next data set relates to cancer cell lines. The data set can be described thus: Cell viability analysis (WST-1) on cancer cell lines. The following applies: drug 10 μM, 72 hours, WST-1; Table 3. (In general: Tetrazolium assays rely on reduction of a dye to a coloured formazan, in cell work by metabolically active cells.)
For data set [6], the system named is TSGH-8301 (Urinary Bladder Carcinoma). The data set can be described thus: Cell viability analysis, bladder cancer TSGH-8301. Conditions: for viability at 10 µM: Homo sapiens.
In data set [7] the test system is HI650 (Lung Adenocarcinoma). The data set can be described thus: Cell viability analysis, lung cancer HI650. The following applies: for viability at 10 µM: Homo sapiens.
Data set [8] has as its system LoVo (Colorectal Adenocarcinoma). The data set can be described thus: Cell viability analysis, colon cancer LoVo. The following applies: Homo sapiens, LoVo, 72 h, read-out: cell viability (survival rate), LoVo, drug 10 μM, 72 hours, WST-1, OD450 nm.
Data set [9] concerns MCF7 (Mammary Gland, Adenocarcinoma). The data set can be described thus: Cell viability analysis, breast cancer MCF7. The following applies: Homo sapiens, MCF7, 72 h.
For data set [10], the system named is AGS (Gastric Adenocarcinoma). The experiment in a line: Cell viability analysis, gastric cancer AGS. The following applies: for viability at 10 µM: Homo sapiens.
In data set [11] the test system is A549 (Lung Adenocarcinoma). The experiment in a line: Cell viability analysis, lung cancer A549. The following applies: for viability at 10 µM: Homo sapiens.
Data set [12] concerns MKN-45 (Gastric Adenocarcinoma). The experiment in a line: Cell viability analysis, gastric cancer MKN-45. Conditions: for viability at 10 µM: Homo sapiens.
Where [13] appears, read: A-375, 72 h, read-out: cell viability (survival rate), A375, drug 10 μM, 72 hours, WST-1, OD450 nm.
Where [14] appears, read: MKN-45, 72 h, read-out: cell viability (survival rate), MKN-45, drug 10 μM, 72 hours, WST-1, OD450 nm.
Setting [15] is: 72 h, read-out: cell viability (survival rate), PC3, drug 10 μM, 72 hours, WST-1, OD450 nm.
The mark [16] stands for this setting: 72 h, read-out: cell viability (survival rate), HeLa, drug 10 μM, 72 hours, WST-1, OD450 nm.
[17] abbreviates: HL-60, 72 h, read-out: cell viability (survival rate), HL-60, drug 10 μM, 72 hours, WST-1, OD450 nm.
Setting [18] is: 72 h, read-out: cell viability (survival rate), TSGH, drug 10 μM, 72 hours, WST-1, OD450 nm.
[19] abbreviates: NCI-H1650, 72 h, read-out: cell viability (survival rate), H1650, drug 10 μM, 72 hours, WST-1, OD450 nm.
Setting [20] is: read-out: cell viability (survival rate), MCF7, drug 10 μM, 72 hours, WST-1, OD450 nm.
[21] abbreviates: 72 h, read-out: cell viability (survival rate), AGS, drug 10 μM, 72 hours, WST-1, OD450 nm.
Setting [22] is: A549, 72 h, read-out: cell viability (survival rate), A549, drug 10 μM, 72 hours, WST-1, OD450 nm.
Setting [23] is: HepG2, 72 h, read-out: cell viability (survival rate), HepG2, drug 10 μM, 72 hours, WST-1, OD450 nm.
The mark [24] stands for this setting: drug 10 μM, 72 hours, WST-1, OD450 nm.

Take `Cc1cc(-n2c(=O)[nH]c(=O)n(C)c2=O)ccc1Oc1ccc(SC(F)(F)F)cc1` [toltrazuril]: the viability at 10 µM in [1] (HepG2, 72 h, drug 10 μM, 72 hours, WST-1, OD450 nm, read-out: cell viability (survival rate), HepG2) is 62.2%; in [2] (A-375, 72 h, drug 10 μM, 72 hours, WST-1, OD450 nm, read-out: cell viability (survival rate), A375), 27.7%; in [3] (72 h, drug 10 μM, 72 hours, WST-1, OD450 nm, read-out: cell viability (survival rate), PC3), 30.3%; in data set [4] (72 h, drug 10 μM, 72 hours, WST-1, OD450 nm, read-out: cell viability (survival rate), HeLa), 70.1%; in data set [5] (HL-60, 72 h, drug 10 μM, 72 hours, WST-1, OD450 nm, read-out: cell viability (survival rate), HL-60), 73.1%; in [6] (72 h, drug 10 μM, 72 hours, WST-1, OD450 nm, read-out: cell viability (survival rate), TSGH), 34.8%. Further, the viability at 10 µM in data set [7] (NCI-H1650, 72 h, drug 10 μM, 72 hours, WST-1, OD450 nm, read-out: cell viability (survival rate), H1650) came to 70.9%; in data set [8] it was 61.9%; in data set [9] (drug 10 μM, 72 hours, WST-1, OD450 nm, read-out: cell viability (survival rate), MCF7), 67.4%; in data set [10] (72 h, drug 10 μM, 72 hours, WST-1, OD450 nm, read-out: cell viability (survival rate), AGS) it was 26.3%; in data set [11] (A549, 72 h, drug 10 μM, 72 hours, WST-1, OD450 nm, read-out: cell viability (survival rate), A549), 61.2%. Besides, the “inhibition effect on different cancer cell lines” value in the data set with cancer cell lines is listed as “significant inhibition effect”.
Turning to `NC[C@@H]1O[C@H](O[C@H]2[C@@H](O)[C@H](O[C@@H]3[C@@H](O)[C@H](N)C[C@H](N)[C@H]3O[C@H]3O[C@H](CO)[C@@H](O)[C@H](O)[C@H]3N)O[C@@H]2CO)[C@H](N)[C@@H](O)[C@@H]1O` [Paromomycin Sulfate], the viability at 10 µM was 91.4% in data set [2] (setting [13]); 92.1% in [12] (setting [14]); 146% in [3] (setting [15]); 96.2% in data set [4] (setting [16]); 87.1% in data set [5] (setting [17]); 106% in data set [6] (setting [18]). The viability at 10 µM in data set [7] (setting [19]) was determined as 99%; in data set [8], 67.1%; in data set [9] (setting [20]) it was 112%; in data set [10] (setting [21]) it was 80.2%; in data set [11] (setting [22]) it was 78.2%. In addition, in the data set with cancer cell lines, the “inhibition effect on different cancer cell lines” value is given as “significant inhibition effect”.
Regarding `OC(Cn1cncn1)(Cn1cncn1)c1ccc(F)cc1F` [Fluconazole], the viability at 10 µM in [1] (setting [23]) turned out to be 97.4%; in data set [2] (setting [13]) it was 76.9%; in data set [12] (setting [14]) it was 76.2%; in data set [3] (setting [15]), 97.7%; in data set [4] (setting [16]) it was 79.2%; in data set [5] (setting [17]) it was 106%. For the same compound, the viability at 10 µM is 66.1% in [6] (setting [18]); 45.3% in data set [7] (setting [19]); 102% in [8]; 50.2% in data set [10] (setting [21]); 125% in [11] (setting [22]). Moreover, the “inhibition effect on different cancer cell lines” value in the data set on cancer cell lines was “significant inhibition effect”.
As to `CCN1CCN(C(=O)N[C@@H](C(=O)N[C@@H]2C(=O)N3C(C(=O)O)=C(CSc4nnnn4C)CS[C@H]23)c2ccc(O)cc2)C(=O)C1=O` [Cefoperazone (Cefobid), Cefoperazone], the viability at 10 µM in data set [2] (setting [13]) came out at 90%; in data set [12] (setting [14]), 51.6%; in data set [3] (setting [15]), 104%; in data set [4] (setting [16]), 91.7%; in data set [5] (setting [17]), 111%; in data set [6] (setting [18]), 60.3%. Further, the viability at 10 µM in data set [7] (setting [19]) came to 98.4%; in data set [8] it was 105%; in [9] (setting [20]), 50.1%; in [10] (setting [21]), 98.6%; in data set [11] (setting [22]) it was 76.5%. Besides, the “inhibition effect on different cancer cell lines” value with cancer cell lines is recorded as “significant inhibition effect”.
Consider `O=c1[nH]c(=O)n([C@H]2C[C@H](O)[C@@H](CO)O2)cc1I` [Idoxuridine], for which the viability at 10 µM in [1] (setting [23]) turned out to be 122%; in [2] (setting [13]), 81.5%; in data set [12] (setting [14]), 80.8%; in data set [3] (setting [15]), 57.8%; in [5] (setting [17]), 96.1%; in data set [6] (setting [18]), 88%. For the same compound, the viability at 10 µM in [7] (setting [19]) turned out to be 82.8%; in [8], 72.7%; in [9] (setting [20]) it was 47.3%; in data set [10] (setting [21]), 68.7%; in data set [11] (setting [22]) it was 58.5%. Moreover, the “inhibition effect on different cancer cell lines” value with cancer cell lines is “significant inhibition effect”.
In the case of Caspofungin acetate, in data set [1] (setting [24]), the “cell viability (survival rate), HepG2” value is listed as 95.3. Further, the “cell viability (survival rate), A375” value in data set [2] (setting [24]) is given as 70.5. Besides, the “cell viability (survival rate), MKN-45” value in data set [12] (setting [24]) was determined as 36.4. In addition, the “cell viability (survival rate), PC3” value in [3] (setting [24]) is 59.4. Further, the “cell viability (survival rate), HL-60” value in data set [5] (setting [24]) is given as 124.4. Also, the “inhibition effect on different cancer cell lines” value in the data set on cancer cell lines is listed as “significant inhibition effect”. The “cell viability (survival rate), TSGH” value in [6] (setting [24]) came to 123.7. Besides, the “cell viability (survival rate), H1650” value in [7] (setting [24]) was found to be 37.1. The “cell viability (survival rate), AGS” value in data set [10] (setting [24]) is 94.2. Also, the “cell viability (survival rate), A549” value in data set [11] (setting [24]) is reported as 78.4.
For the compound `CC(C)(C)C(=O)C(Oc1ccc(Cl)cc1)n1ccnc1` (stereo not drawn) [Climbazole], the viability at 10 µM was determined as 94.4% in data set [1] (HepG2, drug 10 μM, 72 hours, WST-1, OD450 nm, read-out: cell viability (survival rate), HepG2); 70.6% in data set [2] (A-375, drug 10 μM, 72 hours, WST-1, OD450 nm, read-out: cell viability (survival rate), A375); 97.7% in [12] (MKN-45, drug 10 μM, 72 hours, WST-1, OD450 nm, read-out: cell viability (survival rate), MKN-45); 99.6% in data set [3] (drug 10 μM, 72 hours, WST-1, OD450 nm, read-out: cell viability (survival rate), PC3); 94% in [4] (drug 10 μM, 72 hours, WST-1, OD450 nm, read-out: cell viability (survival rate), HeLa); 111% in data set [5] (HL-60, drug 10 μM, 72 hours, WST-1, OD450 nm, read-out: cell viability (survival rate), HL-60). Also, the viability at 10 µM in [6] (drug 10 μM, 72 hours, WST-1, OD450 nm, read-out: cell viability (survival rate), TSGH) is 102%; in data set [7] (NCI-H1650, drug 10 μM, 72 hours, WST-1, OD450 nm, read-out: cell viability (survival rate), H1650) it was 84.2%; in data set [10] (drug 10 μM, 72 hours, WST-1, OD450 nm, read-out: cell viability (survival rate), AGS), 93.3%; in data set [11] (A549, drug 10 μM, 72 hours, WST-1, OD450 nm, read-out: cell viability (survival rate), A549), 72.7%. Moreover, in the data set with cancer cell lines, the “inhibition effect on different cancer cell lines” value is “significant inhibition effect”.
As to `Oc1ccc(C=Cc2cc(O)cc(O)c2)cc1` [Resveratrol], the viability at 10 µM in data set [2] (setting [13]) stood at 53%; in data set [12] (setting [14]), 91.8%; in data set [3] (setting [15]) it was 75%; in data set [4] (setting [16]) it was 108%; in [5] (setting [17]) it was 76.4%; in data set [6] (setting [18]), 85.3%. Moreover, the viability at 10 µM in data set [7] (setting [19]) worked out at 54.6%; in data set [8] it was 83.2%; in [9] (setting [20]) it was 71.8%; in [10] (setting [21]), 47.9%; in [11] (setting [22]), 72.5%. The “inhibition effect on different cancer cell lines” value in the data set with cancer cell lines is given as “significant inhibition effect”.
For the compound `Nc1ccc(S(N)(=O)=O)cc1` [Sulfanilamide], the viability at 10 µM in data set [2] (setting [13]) stood at 84.6%; in [12] (setting [14]), 59.1%; in [3] (setting [15]), 111%; in data set [4] (setting [16]), 82.1%; in data set [5] (setting [17]), 112%; in [6] (setting [18]) it was 76.5%. The viability at 10 µM in [7] (setting [19]) was 66.7%; in data set [8] it was 85%; in data set [9] (setting [20]), 105%; in data set [10] (setting [21]), 65.3%; in data set [11] (setting [22]), 82.7%. The “inhibition effect on different cancer cell lines” value with cancer cell lines is “significant inhibition effect”.
